Laboratory results: PubChem BioAssay AID1963829 (Molecular Pharmacology Branch, DTP, NCI, 2024)

Test system: 935938-334-R-J1-PDC complex spheroid viability
Test: Anticancer human tumor 935938-334-R-J1-PDC patient-derived small intestine adenocarcinoma cell line growth inhibition [POLQ]
Settings: for IC50: curve of first compound; for viability, T/C: stronger effect = lower value
Procedure, shortened: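 Patient-derived tumour cells were co-cultured with HUVEC and mesenchymal stem cells as multicellular spheroids at 37 °C. They were treated with POLQ inhibitors (novobiocin, ART-558, RP6685) alone or combined with other agents. Top concentrations were at or near clinical Cmax (otherwise 10 microM; SN-38 at 1 microM), decreasing in half-log steps.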

[1] = second compound 0.0316 µM, first compound 0.0316 µM
[2] = second compound 0.0316 µM, first compound 0.1 µM
[3] = second compound 0.0316 µM, first compound 0.316 µM
[4] = second compound 0.0316 µM, first compound 1 µM
[5] = second compound 0.0316 µM, first compound 3.16 µM
[6] = second compound 0.0316 µM, first compound 10 µM
[7] = second compound 0.1 µM, first compound 0.0316 µM
[8] = second compound 0.1 µM, first compound 0.1 µM
[9] = second compound 0.1 µM, first compound 0.316 µM
[10] = second compound 0.1 µM, first compound 1 µM
[11] = second compound 0.1 µM, first compound 3.16 µM
[12] = second compound 0.1 µM, first compound 10 µM
[13] = second compound 0.316 µM, first compound 0.0316 µM
[14] = second compound 0.316 µM, first compound 0.1 µM
[15] = second compound 0.316 µM, first compound 0.316 µM
[16] = second compound 0.316 µM, first compound 1 µM
[17] = second compound 0.316 µM, first compound 3.16 µM
[18] = second compound 0.316 µM, first compound 10 µM
[19] = second compound 1 µM, first compound 0.0316 µM
[20] = second compound 1 µM, first compound 0.1 µM
[21] = second compound 1 µM, first compound 0.316 µM
[22] = second compound 1 µM, first compound 1 µM
[23] = second compound 1 µM, first compound 3.16 µM
[24] = second compound 1 µM, first compound 10 µM
[25] = second compound 3.16 µM, first compound 0.0316 µM
[26] = second compound 3.16 µM, first compound 0.1 µM
[27] = second compound 3.16 µM, first compound 0.316 µM
[28] = second compound 3.16 µM, first compound 1 µM
[29] = second compound 3.16 µM, first compound 3.16 µM
[30] = second compound 3.16 µM, first compound 10 µM
[31] = second compound 10 µM, first compound 0.0316 µM
[32] = second compound 10 µM, first compound 0.1 µM
[33] = second compound 10 µM, first compound 0.316 µM
[34] = second compound 10 µM, first compound 1 µM
[35] = second compound 10 µM, first compound 3.16 µM
[36] = second compound 10 µM, first compound 10 µM
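Further: spheroids exposed to drugs for seven days before viability read.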
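Wherever viability, T/C is given: 100% = DMSO vehicle control wells.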

Work on CCc1cc2c(N3CCc4c(cc(Cn5ccnc5)cc4-c4cn(C)nc4C(F)(F)F)C3=O)ccnc2c(OC)n1 + Cc1cccc(N(C)C(=O)C2C(O)CCN2c2nc(C)cc(C(F)(F)F)c2C#N)c1 yielded an IC50 (second compound 0.0316 µM) of over 10 µM, an IC50 (second compound 0.1 µM) of over 10 µM and an IC50 (second compound 0.316 µM) of over 10 µM. It also gave an IC50 (second compound 1 µM) of over 10 µM, an IC50 (second compound 3.16 µM) of over 10 µM and an IC50 (second compound 10 µM) of over 10 µM. For the same compound, the viability, T/C [1] was 69.1%, the viability, T/C [2] was 66.5% and the viability, T/C [3] was 68.8%. The viability, T/C [4] was 58.4%, the viability, T/C [5] was 69.4% and the viability, T/C [6] was 55.3%. It also gave a viability, T/C [7] of 74.5%, a viability, T/C [8] of 75% and a viability, T/C [9] of 63.2%. The viability, T/C [10] was 54.5%, the viability, T/C [11] was 60.6% and the viability, T/C [12] was 55.8%. For the same compound, the viability, T/C [13] was 61.5%, the viability, T/C [14] was 87.3% and the viability, T/C [15] was 64.2%. For the same compound, the viability, T/C [16] was 59.7%, the viability, T/C [17] was 69.5% and the viability, T/C [18] was 64.1%. For the same compound, the viability, T/C [19] was 98.3%, the viability, T/C [20] was 54.9% and the viability, T/C [21] was 58.3%. It also gave a viability, T/C [22] of 67.8%, a viability, T/C [23] of 65.8% and a viability, T/C [24] of 57.6%. For the same compound, the viability, T/C [25] was 78.3%, the viability, T/C [26] was 68.3% and the viability, T/C [27] was 67.9%. The viability, T/C [28] was 79%, the viability, T/C [29] was 71.8% and the viability, T/C [30] was 57.8%. It also gave a viability, T/C [31] of 95.5%, a viability, T/C [32] of 62.8% and a viability, T/C [33] of 81.6%. For the same compound, the viability, T/C [34] was 65.8%, the viability, T/C [35] was 61.2% and the viability, T/C [36] was 51.9%.
Work on CC(=O)O[C@H]1C(=O)[C@@]2(C)[C@H]([C@H](OC(=O)c3ccccc3)[C@]3(O)C[C@H](OC(=O)[C@H](O)[C@@H](NC(=O)c4ccccc4)c4ccccc4)C(C)=C1C3(C)C)[C@]1(OC(C)=O)CO[C@@H]1C[C@@H]2O + COC1C(OC(N)=O)C(O)C(Oc2ccc3c(O)c(NC(=O)c4ccc(O)c(CC=C(C)C)c4)c(=O)oc3c2C)OC1(C)C yielded an IC50 (second compound 0.0316 µM) of under 0.00949 µM, an IC50 (second compound 0.1 µM) of under 0.00949 µM and an IC50 (second compound 0.316 µM) of under 0.00949 µM. It also gave an IC50 (second compound 1 µM) of under 0.00949 µM, an IC50 (second compound 3.16 µM) of under 0.00949 µM and an IC50 (second compound 10 µM) of under 0.00949 µM. For the same compound, the viability, T/C (second compound 0.0316 µM, first compound 0.00949 µM) was 33.5%, the viability, T/C (second compound 0.0316 µM, first compound 0.03 µM) was 21.4% and the viability, T/C (second compound 0.0316 µM, first compound 0.0949 µM) was 14.8%. The viability, T/C (second compound 0.0316 µM, first compound 0.3 µM) was 16.4%, the viability, T/C (second compound 0.0316 µM, first compound 0.949 µM) was 16.6% and the viability, T/C (second compound 0.0316 µM, first compound 3 µM) was 19.3%. It also gave a viability, T/C (second compound 0.1 µM, first compound 0.00949 µM) of 35.7%, a viability, T/C (second compound 0.1 µM, first compound 0.03 µM) of 21.5% and a viability, T/C (second compound 0.1 µM, first compound 0.0949 µM) of 16.9%. The viability, T/C (second compound 0.1 µM, first compound 0.3 µM) was 17.5%, the viability, T/C (second compound 0.1 µM, first compound 0.949 µM) was 16.5% and the viability, T/C (second compound 0.1 µM, first compound 3 µM) was 18.1%. The viability, T/C (second compound 0.316 µM, first compound 0.00949 µM) was 37.9%, the viability, T/C (second compound 0.316 µM, first compound 0.03 µM) was 18.4% and the viability, T/C (second compound 0.316 µM, first compound 0.0949 µM) was 16.6%. The viability, T/C (second compound 0.316 µM, first compound 0.3 µM) was 13.8%, the viability, T/C (second compound 0.316 µM, first compound 0.949 µM) was 17.9% and the viability, T/C (second compound 0.316 µM, first compound 3 µM) was 18.2%. For the same compound, the viability, T/C (second compound 1 µM, first compound 0.00949 µM) was 34.6%, the viability, T/C (second compound 1 µM, first compound 0.03 µM) was 19.5% and the viability, T/C (second compound 1 µM, first compound 0.0949 µM) was 17.4%. It also gave a viability, T/C (second compound 1 µM, first compound 0.3 µM) of 17.2%, a viability, T/C (second compound 1 µM, first compound 0.949 µM) of 16.2% and a viability, T/C (second compound 1 µM, first compound 3 µM) of 16.6%. It also gave a viability, T/C (second compound 3.16 µM, first compound 0.00949 µM) of 32.8%, a viability, T/C (second compound 3.16 µM, first compound 0.03 µM) of 21.3% and a viability, T/C (second compound 3.16 µM, first compound 0.0949 µM) of 14.9%. It also gave a viability, T/C (second compound 3.16 µM, first compound 0.3 µM) of 18.2%, a viability, T/C (second compound 3.16 µM, first compound 0.949 µM) of 17.5% and a viability, T/C (second compound 3.16 µM, first compound 3 µM) of 18.4%. It also gave a viability, T/C (second compound 10 µM, first compound 0.00949 µM) of 36.6%, a viability, T/C (second compound 10 µM, first compound 0.03 µM) of 19.9% and a viability, T/C (second compound 10 µM, first compound 0.0949 µM) of 14.4%. It also gave a viability, T/C (second compound 10 µM, first compound 0.3 µM) of 16.6%, a viability, T/C (second compound 10 µM, first compound 0.949 µM) of 14.6% and a viability, T/C (second compound 10 µM, first compound 3 µM) of 16.4%.
Compound CC(C)n1c(=O)n(C)c2cnc3cc(F)c(-c4ccc(OCCCN5CCCCC5)nc4)cc3c21 + Cc1cccc(N(C)C(=O)C2C(O)CCN2c2nc(C)cc(C(F)(F)F)c2C#N)c1 has an IC50 (second compound 0.0316 µM) of over 10 µM, an IC50 (second compound 0.1 µM) of over 10 µM and an IC50 (second compound 0.316 µM) of over 10 µM. For the same compound, the IC50 (second compound 1 µM) was over 10 µM, the IC50 (second compound 3.16 µM) was over 10 µM and the IC50 (second compound 10 µM) was over 10 µM. It also gave a viability, T/C [1] of 86.8%, a viability, T/C [2] of 98.4% and a viability, T/C [3] of 77.5%. It also gave a viability, T/C [4] of 112%, a viability, T/C [5] of 111% and a viability, T/C [6] of 125%. It also gave a viability, T/C [7] of 85.9%, a viability, T/C [8] of 84.7% and a viability, T/C [9] of 82.8%. It also gave a viability, T/C [10] of 82%, a viability, T/C [11] of 110% and a viability, T/C [12] of 88.3%. For the same compound, the viability, T/C [13] was 97.5%, the viability, T/C [14] was 94.9% and the viability, T/C [15] was 100%. For the same compound, the viability, T/C [16] was 97%, the viability, T/C [17] was 94.2% and the viability, T/C [18] was 97.3%. The viability, T/C [19] was 88%, the viability, T/C [20] was 103% and the viability, T/C [21] was 89.1%. The viability, T/C [22] was 93.5%, the viability, T/C [23] was 105% and the viability, T/C [24] was 98.7%. It also gave a viability, T/C [25] of 93.4%, a viability, T/C [26] of 93.7% and a viability, T/C [27] of 100%. It also gave a viability, T/C [28] of 98.1%, a viability, T/C [29] of 112% and a viability, T/C [30] of 89.5%. For the same compound, the viability, T/C [31] was 105%, the viability, T/C [32] was 80.6% and the viability, T/C [33] was 90.5%. It also gave a viability, T/C [34] of 84.6%, a viability, T/C [35] of 76.9% and a viability, T/C [36] of 80.1%.
Work on COc1cc2cc(C(=O)CCC(=O)O)sc2cc1OC + COC1C(OC(N)=O)C(O)C(Oc2ccc3c(O)c(NC(=O)c4ccc(O)c(CC=C(C)C)c4)c(=O)oc3c2C)OC1(C)C yielded an IC50 (second compound 0.0316 µM) of over 10 µM, an IC50 (second compound 0.1 µM) of over 10 µM and an IC50 (second compound 0.316 µM) of over 10 µM. The IC50 (second compound 1 µM) was over 10 µM, the IC50 (second compound 3.16 µM) was over 10 µM and the IC50 (second compound 10 µM) was over 10 µM. For the same compound, the viability, T/C [1] was 101%, the viability, T/C [2] was 98.3% and the viability, T/C [3] was 113%. For the same compound, the viability, T/C [4] was 83.7%, the viability, T/C [5] was 108% and the viability, T/C [6] was 110%. The viability, T/C [7] was 103%, the viability, T/C [8] was 118% and the viability, T/C [9] was 97.9%. It also gave a viability, T/C [10] of 110%, a viability, T/C [11] of 92.4% and a viability, T/C [12] of 135%. For the same compound, the viability, T/C [13] was 128%, the viability, T/C [14] was 131% and the viability, T/C [15] was 109%. For the same compound, the viability, T/C [16] was 98%, the viability, T/C [17] was 112% and the viability, T/C [18] was 105%. The viability, T/C [19] was 99.2%, the viability, T/C [20] was 98.3% and the viability, T/C [21] was 90.8%. The viability, T/C [22] was 112%, the viability, T/C [23] was 108% and the viability, T/C [24] was 83.1%. The viability, T/C [25] was 106%, the viability, T/C [26] was 96.1% and the viability, T/C [27] was 96.9%. The viability, T/C [28] was 101%, the viability, T/C [29] was 109% and the viability, T/C [30] was 95.4%. It also gave a viability, T/C [31] of 171%, a viability, T/C [32] of 118% and a viability, T/C [33] of 98%. The viability, T/C [34] was 101%, the viability, T/C [35] was 80.8% and the viability, T/C [36] was 109%.
